Earlier results on one compound are cited in patent publication US5516921A, “Thiono-lactone inhibitors of protein trafficking and uses therefor” (Ariad Pharmaceuticals, Inc., priority 1994, dated 1996).

The test system of series [1] is β-COP.
The conditions of series [2]: in vivo.

Take `C[C@H]1CCC/C=C/[C@@H]2C[C@H](O)C[C@H]2[C@H](O)/C=C/C(=O)O1` [BFA, Brefeldin A]: the “time at which release of β-COP from the Golgi is complete” value in series [1] (complete release after BFA treatment) was 1 to 2 min. Besides, the “time at which release of β-COP from the Golgi occurs after treatment” value in series [1] (onset of release after BFA treatment) is at most 20 s. Further, the biological half-life result in series [2] is given as “short”.
